Measurements published in patent US6352958B1, “Cycloimido-substituted benzofused heterocyclic herbicides” (FMC Corporation, priority 1997, dated 2002).

Tests used:
Assay type in all cases: in vivo
[1] = tested on: soybean (Glycine max var. Winchester); test: Preemergence herbicidal activity, soybean; conditions: Rate of Application 0.3 Kg/Ha, examined after 12-17 days
[2] = tested on: morningglory (Ipomea lacunosa or Ipomea hederacea); test: Preemergence herbicidal activity, morningglory; conditions: Rate of Application 0.3 Kg/Ha, examined after 12-17 days
[3] = tested on: field corn (Zea mays var. Pioneer 3732); test: Preemergence herbicidal activity, corn; conditions: Rate of Application 0.3 Kg/Ha, examined after 12-17 days
[4] = tested on: common cocklebur (Xanthium strumarium L.); test: Preemergence herbicidal activity, cocklebur; conditions: Rate of Application 0.3 Kg/Ha, examined after 12-17 days
[5] = tested on: field corn (Zea mays var. Pioneer 3732); test: Postemergence herbicidal activity, corn; conditions: rate of application 0.3 Kg/Ha, rated after 12-17 days
[6] = tested on: Johnsongrass (Sorghum halepense); test: Postemergence herbicidal activity, johnsongrass; conditions: rate of application 0.3 Kg/Ha, rated after 12-17 days
[7] = tested on: common chickweed (Stellaria media); test: Preemergence herbicidal activity, chickweed; conditions: Rate of Application 0.3 Kg/Ha, examined after 12-17 days
[8] = tested on: morningglory (Ipomea lacunosa or Ipomea hederacea); test: Postemergence herbicidal activity, morningglory; conditions: rate of application 0.3 Kg/Ha, rated after 12-17 days
[9] = tested on: blackgrass (Aloepecurus myosuroides); test: Preemergence herbicidal activity, blackgrass; conditions: Rate of Application 0.3 Kg/Ha, examined after 12-17 days
[10] = tested on: blackgrass (Aloepecurus myosuroides); test: Postemergence herbicidal activity, blackgrass; conditions: rate of application 0.3 Kg/Ha, rated after 12-17 days
[11] = tested on: common chickweed (Stellaria media); test: Postemergence herbicidal activity, chickweed; conditions: rate of application 0.3 Kg/Ha, rated after 12-17 days
[12] = tested on: wheat (Triticum aestivum var. Lew); test: Postemergence herbicidal activity, wheat; conditions: rate of application 0.3 Kg/Ha, rated after 12-17 days
[13] = tested on: velvetleaf (Abutilon theophrasti); test: Preemergence herbicidal activity, velvetleaf; conditions: Rate of Application 0.3 Kg/Ha, examined after 12-17 days
[14] = tested on: Johnsongrass (Sorghum halepense); test: Preemergence herbicidal activity, johnsongrass; conditions: Rate of Application 0.3 Kg/Ha, examined after 12-17 days
[15] = tested on: green foxtail (Setaria viridis); test: Preemergence herbicidal activity, green foxtail; conditions: Rate of Application 0.3 Kg/Ha, examined after 12-17 days
[16] = tested on: velvetleaf (Abutilon theophrasti); test: Postemergence herbicidal activity, velvetleaf; conditions: rate of application 0.3 Kg/Ha, rated after 12-17 days
[17] = tested on: wheat (Triticum aestivum var. Lew); test: Preemergence herbicidal activity, wheat; conditions: Rate of Application 0.3 Kg/Ha, examined after 12-17 days
[18] = tested on: soybean (Glycine max var. Winchester); test: Postemergence herbicidal activity, soybean; conditions: rate of application 0.3 Kg/Ha, rated after 12-17 days
[19] = tested on: common cocklebur (Xanthium strumarium L.); test: Postemergence herbicidal activity, cocklebur; conditions: rate of application 0.3 Kg/Ha, rated after 12-17 days
[20] = tested on: green foxtail (Setaria viridis); test: Postemergence herbicidal activity, green foxtail; conditions: rate of application 0.3 Kg/Ha, rated after 12-17 days

Structure (SMILES)	PREEMERGENCE HERBICIDAL ACTIVITY (% CONTROL) SOY [1]	PREEMERGENCE HERBICIDAL ACTIVITY (% CONTROL) IPOSS [2]	PREEMERGENCE HERBICIDAL ACTIVITY (% CONTROL) CRN [3]	PREEMERGENCE HERBICIDAL ACTIVITY (% CONTROL) XANPE [4]	Postemergence herbicidal activity (% control) CRN [5]	Postemergence herbicidal activity (% control) SORHA [6]	PREEMERGENCE HERBICIDAL ACTIVITY (% CONTROL) STEME [7]	Postemergence herbicidal activity (% control) IPOSS [8]	PREEMERGENCE HERBICIDAL ACTIVITY (% CONTROL) ALOMY [9]	Postemergence herbicidal activity (% control) ALOMY [10]	Postemergence herbicidal activity (% control) STEME [11]	Postemergence herbicidal activity (% control) WHT [12]	PREEMERGENCE HERBICIDAL ACTIVITY (% CONTROL) ABUTH [13]	PREEMERGENCE HERBICIDAL ACTIVITY (% CONTROL) SORHA [14]	PREEMERGENCE HERBICIDAL ACTIVITY (% CONTROL) SETVI [15]	Postemergence herbicidal activity (% control) ABUTH [16]	PREEMERGENCE HERBICIDAL ACTIVITY (% CONTROL) WHT [17]	Postemergence herbicidal activity (% control) SOY [18]	Postemergence herbicidal activity (% control) XANPE [19]	Postemergence herbicidal activity (% control) SETVI [20]
Cn1c(C(F)(F)F)cc(=O)n(-c2c(F)cc(Cl)c3[nH]c(C45CC6CC(CC(C6)C4)C5)nc23)c1=O [Compound 374]	30%	95%	10%	80%	30%	60%	90%	95%	40%	25%	80%	25%	100%	75%	100%	100%	0%	80%	100%	80%
CCOC(=O)c1cc2cccc(-n3c(=O)cc(C(F)(F)F)n(C)c3=O)c2o1 [Compound 267]	0%	10%	20%	50%	50%	20%	0%	40%	50%	20%	10%	15%	10%	0%	5%	80%	10%	50%	10%	30%
Cn1c(C(F)(F)F)cc(=O)n(-c2c(F)cc(Cl)c3oc(C(C)(C)C)nc23)c1=O [Compound 30]	100%	100%	95%	90%	90%	100%	100%	100%	100%	90%	100%	80%	100%	100%	100%	100%	100%	95%	100%	100%
Cn1c(C(F)(F)F)cc(=O)n(-c2c(F)cc(Cl)c3oc(N)nc23)c1=O [Compound 38]	60%	100%	80%	70%	60%	50%	0%	100%	30%	20%	0%	35%	100%	60%	75%	100%	50%	70%	45%	40%
